Data on eight compounds can be found in patent US5030654A, “Glutaramide diuretic agents” (Pfizer Inc., priority 1986, dated 1991).

Like-named read-outs stand apart in the source and are kept apart here. Where only a bound is given, the exact number is not on record here.

For test [1], the target named is T1, neutral endopeptidase E.C.3.4.24.11 (Rattus norvegicus, UniProt P07861).
T1 construct: neutral endopeptidase preparation from rat kidney; from tissue; host or cells: rat kidney
T1 sequence (P07861 1-750): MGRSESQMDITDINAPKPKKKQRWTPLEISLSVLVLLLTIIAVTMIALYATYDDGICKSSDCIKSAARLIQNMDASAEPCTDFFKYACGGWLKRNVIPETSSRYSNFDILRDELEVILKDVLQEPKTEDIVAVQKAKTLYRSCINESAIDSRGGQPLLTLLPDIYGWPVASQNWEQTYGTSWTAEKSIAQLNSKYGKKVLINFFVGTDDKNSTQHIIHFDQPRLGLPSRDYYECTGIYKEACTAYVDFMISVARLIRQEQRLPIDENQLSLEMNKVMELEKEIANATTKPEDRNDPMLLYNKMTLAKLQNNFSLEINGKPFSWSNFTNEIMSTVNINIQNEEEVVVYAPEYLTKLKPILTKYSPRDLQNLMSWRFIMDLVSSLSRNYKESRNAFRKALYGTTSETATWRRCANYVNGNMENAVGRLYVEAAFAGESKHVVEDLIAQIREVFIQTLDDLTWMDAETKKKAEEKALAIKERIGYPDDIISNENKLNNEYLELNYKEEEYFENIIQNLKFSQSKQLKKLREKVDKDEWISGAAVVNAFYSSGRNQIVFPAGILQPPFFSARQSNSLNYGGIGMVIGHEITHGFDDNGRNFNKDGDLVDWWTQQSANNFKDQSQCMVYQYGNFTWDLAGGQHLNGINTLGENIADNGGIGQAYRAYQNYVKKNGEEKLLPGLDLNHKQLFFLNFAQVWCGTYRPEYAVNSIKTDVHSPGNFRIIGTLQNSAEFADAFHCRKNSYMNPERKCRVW
Kind of test: inhibition of the neutral endopeptidase E.C.3.4.24.11 in vitro. In kind it is biochemical. The method, then:
Activity against neutral endopeptidase E.C.3.4.24.11 is assessed using a procedure based on the assay described by J. T. Gafford, R. A. Skidgel, E. G. Erdos and L. B. Hersh, Biochemistry, 1983, […], 3265-3271. The method involves determining the concentration of compound required to reduce by 50% the rate of release of radiolabelled hippuric acid from hippuryl-L-phenylalanyl-L-arginine by a neutral endopeptidase preparation from rat kidney.
(§1) The activity of the racemate and separated enantiomers of the cis-4-{1-[2-carboxy-3-(2-methoxyethoxy)propyl]-1-cyclopentanecarboxamido}- 1-cyclohexanecarboxylic acid was assessed by measuring their ability to inhibit the neutral endopeptidase E.C.3.4.24.11 in vitro or to induce natriuresis in mice in vivo following the procedures described herein.
The compounds were assessed for their ability to inhibit the neutral endopeptidase E.C.3.4.24.11 following the procedure described herein.

Test [2] relates to male mice (Charles River CDl). Kind of test: natriuresis in mice in vivo (saline loaded conscious mice). Also on record: species or system mouse. Particulars: i.v. via tail vein, urine collected for two hours. The method, then:
The activity of the compounds as diuretic agents is determined by measuring their ability to increase urine output and sodium ion excretion in saline loaded conscious mice. In this test, male mice (Charles River CDl, 22-28 g) are acclimatised and starved overnight in metabowls. The mice are dosed intravenously via the tail vein, with the test compound dissolved in a volume of saline solution equivalent to 2.5% of body weight. Urine samples are collected each hour for two hours in pre-weighed tubes and analysed for electrolyte concentration. Urine volume and sodium ion concentration from the test animals are compared to a control group which received only saline.
as §1

Setting [3] is: neutral endopeptidase E.C.3.4.24.11, rat kidney preparation (Example 454), read-out: IC50.
[4] abbreviates: in vitro, neutral endopeptidase preparation from rat kidney, racemate and enantiomers (Example 445), read-out: IC50 against E.C.3.4.24.11.

In the case of `CCCCC1CC(NC(=O)C2(C[C@@H](COCCOC)C(=O)O)CCCC2)CCC1C(=O)O` (single isomer, unassigned; isomer a) [Example 449 isomer A, 3-[1-(c-4-Carboxy-c-3-butylcyclohexyl-r-1-carbamoyl)cyclopentyl]-2S-(2-methoxyethoxymethyl)propanoic acid], in test [1] (setting [3]), the IC50 was found to be 3.6 nM.

On to `COCCOC[C@H](CC1(C(=O)N[C@H]2CC[C@@H](C(=O)O)CC2)CCCC1)C(=O)O` [(+) S, (S)-cis-4-{1-[2-Carboxy-3-(2-methoxyethoxy)propyl]-1-cyclopentanecarboxamido}-1-cyclohexanecarboxylic acid], for which the “Natriuresis in mouse (i.v.)” value in test [2] is given as “active at 1.5 mg/kg”. Besides, the IC50 in test [1] (setting [4]) is 39 nM.

On to `COCCOC[C@@H](CC1(C(=O)N[C@H]2CC[C@@H](C(=O)O)CC2)CCCC1)C(=O)O` [(-) R, cis-4-{1-[2-carboxy-3-(2-methoxyethoxy)propyl]-1-cyclopentanecarboxamido}-1-cyclohexanecarboxylic acid], for which the “Natriuresis in mouse (i.v.)” value in test [2] is “inactive at 3 mg/kg”. Further, in test [1] (setting [4]), the IC50 is below 1000 nM.

`COCCC(CC1(C(=O)N[C@H]2CC[C@@H](C(=O)O)CC2)CCCC1)C(=O)O` (relative stereo) [Example 217, 3-{1-[(cis-4-Carboxy-cyclohexyl)carbamoyl]cyclopentyl}-2-(2-methoxyethyl)propanoic acid]: the IC50 in test [1] (setting [3]) worked out at 50 nM.

For the compound `CCCCC1CC(NC(=O)C2(CC(CCOC)C(=O)O)CCCC2)CCC1C(=O)O` (centres unmarked) [Example 453, 3-[1-(c-4-Carboxy-c-3-butylcyclohexyl-r-1-carbamoyl)cyclopentyl]-2-(2-methoxyethyl)propanoic acid], the IC50 in test [1] (setting [3]) came out at 8 nM.

For `CCCCC1CC(NC(=O)C2(C[C@@H](COCCOC)C(=O)O)CCCC2)CCC1C(=O)O` (stereo partly drawn) [Example 451, 3-[1-(c-4-Carboxy-t-3-butyl-r-1-carbamoyl)cyclopentyl]-2S-(2-methoxyethoxymethyl)propanoic acid], in test [1] (setting [3]), the IC50 came out at 7.9 nM.

Turning to `COCCOCC(CC1(C(=O)N[C@H]2CC[C@@H](C(=O)O)CC2)CCCC1)C(=O)O` (mixture of isomers) [(±) R,S, cis-4-{1-[2-carboxy-3-(2-methoxyethoxy)propyl]-1-cyclopentanecarboxamido}-1-cyclohexanecarboxylic acid], the “Natriuresis in mouse (i.v.)” value in test [2] is reported as “active at 3 mg/kg”. For the same compound, the IC50 in test [1] (setting [4]) is 48 nM.

Regarding `CCCCC1CC(NC(=O)C2(C[C@@H](COCCOC)C(=O)O)CCCC2)CCC1C(=O)O` (single isomer, unassigned) [Example 449 isomer B, 3-[1-(c-4-Carboxy-c-3-butylcyclohexyl-r-1-carbamoyl)cyclopentyl]-2S-(2-methoxyethoxymethyl)propanoic acid], the IC50 in test [1] (setting [3]) was 5.6 nM.
